Test results published in PubChem BioAssay (NCI).
Several values for one entry are separate records, joined by “and”; a condition that tells them apart may be missing. Equal values may be shown once.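 In this assay, cells in 96-well plates receive the compound at five concentrations for 48 hours. Endpoints are linearly interpolated between the surrounding concentrations. GI50: concentration for 50% inhibition of growth. TGI is the concentration that stops growth completely.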

Key:
Assay in all cases: growth of human tumour cells (NCI), 48 h
OVCAR-3 ovarian = test system: OVCAR-3 ovarian
HOP-92 NSCLC = test system: HOP-92 NSCLC
UACC-257 melanoma = test system: UACC-257 melanoma
786-0 renal = test system: 786-0 renal
HS 578T breast = test system: HS 578T breast
MDA-MB-231 breast = test system: MDA-MB-231 breast
OVCAR-5 ovarian = test system: OVCAR-5 ovarian
ACHN renal = test system: ACHN renal
SNB-19 CNS = test system: SNB-19 CNS
BT-549 breast = test system: BT-549 breast

| Compound | GI50 (OVCAR-3 ovarian) | TGI (OVCAR-3 ovarian) | GI50 (HOP-92 NSCLC) | TGI (HOP-92 NSCLC) | GI50 (UACC-257 melanoma) | TGI (UACC-257 melanoma) | GI50 (786-0 renal) | TGI (786-0 renal) | GI50 (HS 578T breast) | TGI (HS 578T breast) | GI50 (MDA-MB-231 breast) | TGI (MDA-MB-231 breast) | GI50 (OVCAR-5 ovarian) | TGI (OVCAR-5 ovarian) | GI50 (ACHN renal) | GI50 (SNB-19 CNS) | TGI (SNB-19 CNS) | GI50 (BT-549 breast) | TGI (BT-549 breast) | TGI (ACHN renal) [µM] |
| --- | --- | --- | --- | --- | --- | --- | --- | --- | --- | --- | --- | --- | --- | --- | --- | --- | --- | --- | --- | --- |
| Cc1cnc(NC(=O)Nc2cc(Br)c(C)cc2OC[C@@H]2CNCCO2)cn1 | 1.37 µM and 1.13 µM | > 10 µM and 10.2 µM | 0.546 µM and 0.389 µM | > 10 µM and 5.72 µM | 1.59 µM and 2.44 µM | 3.59 µM and 8.37 µM | 0.417 µM and 0.353 µM | > 10 µM and 5 µM | 0.572 µM and 0.771 µM | > 10 µM and 8.82 µM | 2.96 µM and 1.48 µM | > 10 µM and 7.39 µM | 2.1 µM and 1.96 µM | > 10 µM and 13.4 µM | 0.319 µM and 0.225 µM | 2.52 µM and 1.42 µM | > 10 µM and 14.3 µM | 1.28 µM and 1.29 µM | > 10 µM and 13.6 µM | – |
| Cc1ccc(-c2csc(/N=C3\C(=O)Nc4ccccc43)n2)cc1 | 1.64 µM | 4.89 µM | 1.24 µM | 3.29 µM | – | – | 1.63 µM | 3.28 µM | 1.97 µM | 6.66 µM | 1.52 µM | 3.48 µM | 1.93 µM | 4.57 µM | 2.62 µM | 1.52 µM | 3.19 µM | 1.49 µM | 3.06 µM | 14.2 |
| CCN(Cc1cccc(F)c1)c1ccc(CO)c(Cl)c1 | 0.711 µM | 6.71 µM | 1.86 µM | 20.8 µM | 0.114 µM | 0.344 µM | 10.5 µM | 30.3 µM | 19.5 µM | 74.4 µM | 19 µM | > 55.3 µM | 0.148 µM | 0.605 µM | 29.4 µM | 21.8 µM | > 92.6 µM | 11 µM | 28.3 µM | > 100 |
| COc1ccc(S(=O)(=O)N2CC(C)(C)CN(S(=O)(=O)c3ccc(OC)cc3)C2C(=O)NO)cc1 | 19.8 µM | > 20 µM | 8.14 µM | > 20 µM | > 19.1 µM | > 20 µM | > 20 µM | > 20 µM | > 6.77 µM | > 20 µM | > 16.2 µM | > 20 µM | > 20 µM | > 20 µM | > 20 µM | > 20 µM | > 20 µM | > 20 µM | > 20 µM | > 20 |
| Fc1ccc2[nH]cc(-c3nonc3-c3c[nH]c4ccc(Br)cc34)c2c1 | 2.07 µM | 5.43 µM | 1.97 µM | 5.52 µM | 4.17 µM | 13.8 µM | 2.16 µM | 4.5 µM | 2.27 µM | 5.96 µM | 1.3 µM | 2.88 µM | 2.15 µM | 5.8 µM | 2 µM | 2.25 µM | 5.69 µM | 3.38 µM | 15 µM | 8.42 |
| Cc1ccc(S(=O)(=O)NC(=O)C2C(=O)CC3(CCCCC3)CC2=O)cc1 | – | 92.2 µM | – | 45.6 µM | – | 78.1 µM | – | > 100 µM | – | > 100 µM | – | > 100 µM | – | > 100 µM | – | – | > 100 µM | – | 75 µM | 62.1 |
| C#CCOc1cccc(-c2ncnc3cc(NC(=O)CCl)ccc23)c1 | 0.617 µM | 2.07 µM | 1.42 µM | 3.32 µM | 1.64 µM | 5.19 µM | 0.208 µM | 2.26 µM | 1.92 µM | 14.5 µM | 0.481 µM | 4.57 µM | 1.19 µM | 2.86 µM | 0.419 µM | 1.14 µM | 4.86 µM | 0.849 µM | 2.31 µM | 2.06 |
| C=C1C(O)C2C(=C(CCc3ccccc3)C13CC3)C(=O)C(C)(CO)C2O (stereo not given) | > 100 µM | > 100 µM | 12.5 µM | > 100 µM | > 100 µM | > 100 µM | > 100 µM | > 100 µM | 14.3 µM | 99.8 µM | > 100 µM | > 100 µM | > 100 µM | > 100 µM | > 100 µM | > 100 µM | > 100 µM | > 100 µM | > 100 µM | > 100 |
| COc1cc(C#Cc2ccc(=O)oc2C#Cc2ccccc2)cc(OC)c1OC | 1.93 µM | 3.58 µM | 5.13 µM | 12.4 µM | 6.81 µM | 15.6 µM | 3.39 µM | 12.2 µM | 5.83 µM | 43.9 µM | 2.84 µM | 7.87 µM | 5.74 µM | 12.1 µM | 2.13 µM | 8.91 µM | 34.3 µM | 1.97 µM | 4.21 µM | 4.23 |
| CC(C)=CCc1c(OC(=O)c2c(C)cc(O)cc2O)cc(CO)c(CO)c1O | – | – | – | 52.3 µM | – | > 100 µM | – | > 100 µM | – | 54.8 µM | – | 48.3 µM | – | 43.1 µM | – | – | 21.2 µM | – | 41 µM | 37.2 |
| C=C(c1ccc2nc(NC(=O)OC)[nH]c2c1)c1cccs1 | – | – | – | > 31 µM | – | > 100 µM | – | > 100 µM | – | > 100 µM | – | > 100 µM | – | > 100 µM | – | – | > 100 µM | – | > 100 µM | 7.47 |
